The source of these data is patent US11839613B2, “Pyrimidine derivatives as PGE2 receptor modulators” (IDORSIA PHARMACEUTICALS LTD, priority 2017, dated 2023).

One assay concerns the target PTGER2 (EP2) (Homo sapiens (Human), UniProt P43116). Put plainly: hEP2 b-arrestin assay (PathHunter HEK 293 PTGER2 b-arrestin cells). In kind it is cell-based. As to conditions: antagonistic activity, beta-arrestin assay; read-out: hEP2 b-arr IC50. As to the method:
Plate is pre-incubated 15 minutes at 37° C. Then five microliters of PGE2 (final conc. 5 μM) are transferred into the assay plate. Plate is incubated 120 minutes at 37° C.
(each concentration is measured in duplicate)

The target of the next assay is EP2 (Homo sapiens (Human), UniProt P43116). The assay can be described thus: hEP2 cAMP assay (SF295 glioblastoma cells, HTRF cAMP). Type of assay: cell-based. Particulars: antagonistic activity. The gist of the method:
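PGE2-driven cAMP accumulation was measured by HTRF in SF295 cells, which express endogenous EP2 only. Cells in assay buffer with 2 mM IBMX were pre-incubated 45 min at RT, then incubated 30 min at RT. Detection used competition between cellular cAMP and d2-cAMP for a cryptate anti-cAMP antibody.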
(Cyclic AMP is a second messenger, typically raised through Gs and lowered through Gi signalling.)

A further assay has as its target PTGER4 (EP4) (Homo sapiens (Human), UniProt P35408). Put plainly: cell-based.
For another assay, the target named is EP4 (Homo sapiens (Human), UniProt P35408). The assay can be described thus: hEP4 cAMP assay (BT549 breast cancer cells, HTRF cAMP). As to conditions: antagonistic activity, PGE2 6 nM. In kind it is cell-based. The essentials: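 BT549 breast cancer cells (endogenous EP4) in HBSS/20 mM HEPES/0.2% BSA/2 mM IBMX preincubated 45 min at RT with compound, then stimulated 30 min at RT with 6 nM PGE2 (final). cAMP read by competitive HTRF immunoassay, signal inversely proportional to cAMP.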
Sequence of EP4 (P35408 whole entry): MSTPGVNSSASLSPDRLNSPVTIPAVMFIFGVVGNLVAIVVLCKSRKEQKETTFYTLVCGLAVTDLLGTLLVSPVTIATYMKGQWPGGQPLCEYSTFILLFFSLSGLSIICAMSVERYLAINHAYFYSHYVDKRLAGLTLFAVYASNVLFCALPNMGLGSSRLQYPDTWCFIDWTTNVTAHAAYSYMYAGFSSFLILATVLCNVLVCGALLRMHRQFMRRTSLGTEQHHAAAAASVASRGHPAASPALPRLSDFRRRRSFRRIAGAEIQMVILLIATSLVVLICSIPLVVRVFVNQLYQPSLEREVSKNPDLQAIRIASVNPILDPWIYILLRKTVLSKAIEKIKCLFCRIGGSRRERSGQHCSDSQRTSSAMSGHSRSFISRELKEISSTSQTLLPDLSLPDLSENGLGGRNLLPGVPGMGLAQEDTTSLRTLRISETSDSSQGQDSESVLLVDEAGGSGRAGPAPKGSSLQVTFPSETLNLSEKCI

Sequence of PTGER4 (EP4) (P35408 whole entry): as above
Sequence of EP2 (P43116 whole entry): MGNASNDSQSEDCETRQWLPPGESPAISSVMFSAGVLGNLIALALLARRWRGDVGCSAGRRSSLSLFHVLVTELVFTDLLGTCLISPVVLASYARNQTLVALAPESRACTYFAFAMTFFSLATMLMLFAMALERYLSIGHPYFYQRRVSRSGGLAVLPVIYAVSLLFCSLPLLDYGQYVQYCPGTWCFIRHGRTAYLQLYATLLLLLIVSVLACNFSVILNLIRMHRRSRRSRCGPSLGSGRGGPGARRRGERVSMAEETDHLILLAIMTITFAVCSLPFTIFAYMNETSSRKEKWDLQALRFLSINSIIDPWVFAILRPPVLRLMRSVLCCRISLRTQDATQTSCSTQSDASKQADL
Sequence of PTGER2 (EP2) (P43116 whole entry): as above
Text for PTGER4 (EP4): The system is based on the Enzyme Fragment Complementation Technology. Two complementing fragments of the b-galactosidase enzyme are expressed within stably transfected cells. The larger portion of b-gal, termed EA for Enzyme Acceptor, is fused to the C-terminus of b-arrestin 2. The smaller fragment, termed ProLink™ tag, is fused to PTGER2 (EP2) or PTRGER4 (EP4) at the C-terminus. Upon activation, b-arrestin is recruited which forces the interaction of ProLink and EA, allowing complementation of the two fragments of b-gal and the formation of a functional enzyme which is capable of hydrolysing the substrate and generating a chemiluminescent signal.
Plate is incubated at 37° C., 5% CO2 for 24 hours.
Stock solutions of test compounds are made at a concentration of 10 mM in DMSO, and serially diluted in DMSO to concentrations required for inhibition dose response curves (tested concentration range 10 μM-2 nM or 1 μM-0.2 nM).
Five microliters of diluted compounds are transferred into the assay plate. Plate is pre-incubated 15 minutes at 37° C. Then five microliters of PGE2 (final conc. 20 nM) are transferred into the assay plate. Plate is incubated 120 minutes at 37° C.
Twelve I of reagent are transferred to the assay plate and incubate for 1 hour at RT in the dark. Luminescence counts are read on a BMG Fluostar Optima reader according to manufacturer's instructions.
For each compound concentration calculate of the percentage of activity compared to DMSO control value as average ±STDEV. (each concentration is measured in duplicate)

On to `CCOc1cc(-c2cc(NCCc3ccc4c(c3)CCCO4)ncn2)sc1C(=O)O` [Ex 56, 5-[6-(2-Chroman-6-yl-ethylamino)-pyrimidin-4-yl]-3-ethoxy-thiophene-2-carboxylic acid], for which the IC50 (in general, the concentration that inhibits the measured activity by half) at PTGER2 (EP2) came to 538 nM; against EP2, 190 nM; against PTGER4 (EP4), 27 nM; at EP4, 28 nM.

With `COc1cc2ccsc2cc1CCNc1cc(-c2ccc(C(=O)O)c(SC)c2)ncn1` [Ex 152, 4-{6-[2-(5-Methoxy-benzo[b]thiophen-6-yl)-ethylamino]-pyrimidin-4-yl}-2-methylsulfanyl-benzoic acid], the IC50 on PTGER2 (EP2) came out at 119 nM; at EP2, 111 nM; against PTGER4 (EP4) it was 352 nM; against EP4, 145 nM.

Turning to `CCc1nc(-c2cc(NCCc3ccc4ccccc4c3C)ncn2)sc1-c1noc(=O)[nH]1` [Example 353, 3-(4-Ethyl-2-{6-[2-(1-methyl-naphthalen-2-yl)-ethylamino]-pyrimidin-4-yl}-thiazol-5-yl)-[1,2,4]oxadiazol-5(4H)-one], the IC50 on PTGER2 (EP2) turned out to be 237 nM; against EP2 it was 115 nM; against PTGER4 (EP4) it was 9 nM; at EP4, 109 nM.

Turning to `CSc1cc(-c2cc(NCCc3cc(Cl)c4sccc4c3)ncn2)ccc1C(=O)O` [Example 360, 4-{6-[2-(7-Chloro-benzo[b]thiophen-5-yl)-ethylamino]-pyrimidin-4-yl}-2-methylsulfanyl-benzoic acid], the IC50 was found to be 137 nM at PTGER2 (EP2), 183 nM against EP2, 69 nM at PTGER4 (EP4) and 44 nM against EP4.

Regarding `CCOc1cc(-c2cc(NCCc3cc(F)c4sccc4c3)ncn2)sc1CC(=O)O` [Example 456, (3-Ethoxy-5-{6-[2-(7-fluoro-benzo[b]thiophen-5-yl)-ethylamino]-pyrimidin-4-yl}-thiophen-2-yl)-acetic acid], the IC50 on PTGER2 (EP2) turned out to be 129 nM; at EP2, 311 nM; on PTGER4 (EP4), 21 nM; against EP4 (BT549 cells), 14 nM.

`CCOc1cc(-c2cc(NCCc3c(OCC)cc4ccccc4c3F)ncn2)ccc1C(=O)O` [Example 436, 2-Ethoxy-4-{6-[2-(3-ethoxy-1-fluoro-naphthalen-2-yl)-ethylamino]-pyrimidin-4-yl}-benzoic acid]: the IC50 at PTGER2 (EP2) came to 16 nM; against EP2, 110 nM; on PTGER4 (EP4), 31 nM; against EP4 (BT549 cells), 57 nM.

With `CCOc1cc(-c2cc(NCCc3ccc4ccccc4c3C)ncn2)ccc1C(=O)O` [Ex 172, 2-Ethoxy-4-{6-[2-(1-methyl-naphthalen-2-yl)-ethylamino]-pyrimidin-4-yl}-benzoic acid], the IC50 is 157 nM on PTGER2 (EP2), 137 nM on EP2, 287 nM against PTGER4 (EP4) and 181 nM on EP4.

`CCCOc1cc(-c2cc(NCCc3ccc4ccccc4c3C)ncn2)ccc1C(=O)O` [Ex 183, 4-{6-[2-(1-Methyl-naphthalen-2-yl)-ethylamino]-pyrimidin-4-yl}-2-propoxy-benzoic acid]: the IC50 was determined as 115 nM on PTGER2 (EP2), 67 nM against EP2, 223 nM at PTGER4 (EP4) and 178 nM at EP4.

Consider `CCOc1cc(-c2cc(NCCc3cc(Cl)c4sccc4c3)ncn2)ccc1C(=O)O` [Example 358, 4-{6-[2-(7-Chloro-benzo[b]thiophen-5-yl)-ethylamino]-pyrimidin-4-yl}-2-ethoxy-benzoic acid], for which the IC50 at PTGER2 (EP2) was 538 nM; at EP2, 219 nM; against PTGER4 (EP4) it was 138 nM; against EP4 it was 90 nM.

`CCOc1nc(-c2cc(NCCc3ccc4ccccc4c3C)ncn2)sc1C(=O)O` [Example 350, 4-Ethoxy-2-{6-[2-(1-methyl-naphthalen-2-yl)-ethylamino]-pyrimidin-4-yl}-thiazole-5-carboxylic acid]: the IC50 on PTGER2 (EP2) amounted to 83 nM; against EP2, 51 nM; at PTGER4 (EP4) it was 21 nM; against EP4 it was 10 nM.

For the molecule `CCOc1cc(-c2cc(NCCc3ccc4cc[nH]c4c3)ncn2)sc1-c1noc(=O)[nH]1` [Example 343, 3-(3-Ethoxy-5-{6-[2-(1H-indol-6-yl)-ethylamino]-pyrimidin-4-yl}-thiophen-2-yl)-[1,2,4]oxadiazol-5(4H)-one], the IC50 was determined as 9 nM at PTGER2 (EP2), 23 nM on EP2, 2 nM against PTGER4 (EP4) and 12 nM against EP4.

In the case of `COc1cc2c(cc1CCNc1cc(-c3ccc4cc(C(=O)O)oc4c3)ncn1)OCCO2` [Ex 81, 6-{6-[2-(7-Methoxy-2,3-dihydro-benzo[1,4]dioxin-6-yl)-ethylamino]-pyrimidin-4-yl}-benzofuran-2-carboxylic acid], the half-inhibitory concentration (IC50) was 122 nM on PTGER2 (EP2), 123 nM at EP2, 1840 nM against PTGER4 (EP4) and 164 nM against EP4.

`COc1cc2ccoc2cc1CCNc1cc(-c2ccc(C(=O)O)c(OC3CCC3)c2)ncn1` [Ex 124, 2-Cyclobutoxy-4-{6-[2-(5-methoxy-benzofuran-6-yl)-ethylamino]-pyrimidin-4-yl}-benzoic acid]: the half-inhibitory concentration (IC50) is 113 nM on PTGER2 (EP2), 95 nM at EP2, 215 nM on PTGER4 (EP4) and 99 nM against EP4.

Consider `CCOc1cc(-c2cc(NCCc3cc4ccoc4cc3F)ncn2)sc1C(=O)O` [Ex 13, 3-Ethoxy-5-{6-[2-(6-fluoro-benzofuran-5-yl)-ethylamino]-pyrimidin-4-yl}-thiophene-2-carboxylic acid], for which the IC50 on PTGER2 (EP2) is 12 nM; against EP2 it was 15 nM; against PTGER4 (EP4) it was 9 nM; on EP4, 8 nM.

Take `COc1cc2sccc2cc1CCNc1cc(-c2ccc(C(=O)O)cc2)ncn1` [Ex 276, 4-{6-[2-(6-Methoxy-benzo[b]thiophen-5-yl)-ethylamino]-pyrimidin-4-yl}-benzoic acid]: the IC50 at PTGER2 (EP2) amounted to 79 nM; against EP2, 47 nM; against PTGER4 (EP4) it was 1820 nM; against EP4 it was 474 nM.

`CC(C)COc1cc(-c2cc(NCCc3cc(F)c4sccc4c3)ncn2)ccc1C(=O)O` [Example 453, 4-{6-[2-(7-Fluoro-benzo[b]thiophen-5-yl)-ethylamino]-pyrimidin-4-yl}-2-isobutoxy-benzoic acid]: the IC50 is 102 nM on PTGER2 (EP2), 281 nM on EP2, 70 nM at PTGER4 (EP4) and 118 nM against EP4 (BT549 cells).

For the molecule `CCOc1cc2c(cc1CCNc1cc(-c3cc(OCC)c(C(=O)O)s3)ncn1)OCCO2` [Ex 39, 3-Ethoxy-5-{6-[2-(7-ethoxy-2,3-dihydro-benzo[1,4]dioxin-6-yl)-ethylamino]-pyrimidin-4-yl}-thiophene-2-carboxylic acid], the IC50 is 4 nM at PTGER2 (EP2), 2 nM against EP2, 14 nM against PTGER4 (EP4) and 19 nM against EP4.

For the molecule `CCOc1nc(-c2cc(NCCc3ccc4ccccc4c3C)ncn2)sc1-c1noc(=O)[nH]1` [Example 352, 3-(4-Ethoxy-2-{6-[2-(1-methyl-naphthalen-2-yl)-ethylamino]-pyrimidin-4-yl}-thiazol-5-yl)-[1,2,4]oxadiazol-5(4H)-one], the IC50 at PTGER2 (EP2) was 42 nM; against EP2, 142 nM; against PTGER4 (EP4) it was 5 nM; against EP4 it was 24 nM.

As for `CCCCOc1cc(-c2cc(NCCc3ccc4ccccc4c3C)ncn2)cc(F)c1C(=O)O` [Ex 150], the IC50 on PTGER2 (EP2) was determined as 230 nM; at EP2, 219 nM; at PTGER4 (EP4) it was 222 nM; at EP4, 144 nM.
